Results on ten compounds are retold here after US8519134B2, “Aryl-pyridine derivatives as aldosterone synthase inhibitors” (Novartis AG, priority 2009, dated 2013).

Structures can show the parent of a compound that is named as a salt.

One assay addresses T1, CYP11B1(cortisol) (Homo sapiens, UniProt P15538).
T1 construct: Thus, the NCI-H295R cells have CYP11 B1 (steroid 11 β-hydroxylase); host or cells: NCI-H295R (human adrenocortical carcinoma)
T1 sequence (P15538 25-503): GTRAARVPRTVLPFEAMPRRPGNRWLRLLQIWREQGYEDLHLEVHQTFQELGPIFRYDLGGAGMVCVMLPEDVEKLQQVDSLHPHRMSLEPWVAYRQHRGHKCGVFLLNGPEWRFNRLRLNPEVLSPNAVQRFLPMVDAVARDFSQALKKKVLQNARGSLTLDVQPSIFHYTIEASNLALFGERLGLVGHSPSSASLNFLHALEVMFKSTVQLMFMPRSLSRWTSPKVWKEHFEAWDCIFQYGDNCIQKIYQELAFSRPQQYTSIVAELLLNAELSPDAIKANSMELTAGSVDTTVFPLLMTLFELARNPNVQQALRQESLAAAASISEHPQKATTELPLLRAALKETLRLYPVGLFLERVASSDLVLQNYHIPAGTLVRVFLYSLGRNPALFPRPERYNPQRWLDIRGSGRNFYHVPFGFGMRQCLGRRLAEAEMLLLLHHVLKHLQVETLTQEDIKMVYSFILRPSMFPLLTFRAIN
As to the kind of experiment: Inhibition of cortisol production in NCI-H295R cells. The assay is classed as cell-based. As to conditions: inhibitory activity on cortisol production, read-out: Cortisol (cell). From the text:
The in vitro inhibitory activities for CYP11B1 can be determined by the following assay.
The cell line NCI-H295R was originally isolated from an adrenocortical carcinoma and has been characterized in the literature through the stimulable secretion of steroid hormones and the presence of the enymes essential for steroidogenesis. Thus, the NCI-H295R cells have CYP11 B1 (steroid 11 β-hydroxylase). The cells show the physiological property of zonally undifferentiated human foetal adrenocortical cells which, however, have the capacity to produce the steroid hormones which are formed in the three, phenotypically distinguishable zones in the adult adrenal cortex.
The NCI-H295R cells (American Type Culture Collection, ATCC, Rockville, Md., USA) are grown in Dulbeoco's Modified Eagle'Ham F-12 Medium (DME/F12), which has been supplemented with Ulroser SF Serum (Soprachem, Cergy-Saint-Christophe, France), insulin, transferrin, selenite (I-T-S, Becton Dickinson Biosiences, Franklin lakes, NJ, USA) and antibiotics in 75 cm^2 cell culture vessels at 37° C. and in a 95% air-5% carbon dioxide atmosphere. The cells are subsequently transferred for colony formation into a 24-well incubation vessel. They are cultivated there in DME/F12 medium, which is now supplemented with 0.1% bovine serum instead of Ultroser SF for 24 hours. The experiment is initiated by cultivating the cells in DME/F12 medium which is supplemented with 0.1% bovine serum albumin and test compound, in the presence or absence of cell stimulants, for 72 hours. The test substance is added in a concentration range from 0.2 nanomolar to […]. Cell stimulants which can be used are angiotensin 11 ([…] or 100 nanomolar), potassium ions (16 millimolar), forskolin (10 micromolar) or a combination of two stimulants.
The excretion of aldosterone, cortisol, corticosterone and estradiol/estrone into the culture medium can be detected and quantified by commercially available, specific monoclonal antibodies in radioimmunoassays in accordance with the manufacturers instructions.
Inhibition of the release of certain steroids can be used as a measure of the respective enzyme inhibition by the added test compounds. The dose-dependent inhibition of enzymic activity by a compound is calculated by means of an inhibition plot which is characterized by an IC50.
The IC50 values for active test compounds are ascertained by a simple linear regression analysis in order to construct inhibition plots without data weighting. The inhibition plot is calculated by fitting a 4-parameter logistic function to the raw data points using the least squares method. The equation of the 4-parameter logistic function is calculated as follows: Y=(d−a)/((1+(x/c)b))+a, where: a=minimum data level, b=gradient, I […], d=maximum data level, x=inhibitor concentration.
The inhibition activity of CYP11B1 production can also be expressed in percentage inhibition (% inhibition) at a given concentration (e.g. % inhibition at 1 μM), which is the cortisol level when cell is treated with the given concentration of a compound of the invention (e.g. concentration of 1 μM) versus the cortisol excretion when cell is free of the compound of the invention. % inhibition cortisol production=[(Y′−X′)/Y′]×100 wherein X′ is the level of cortisol when the cell is treated with a compound according to anyone of Formulae I to V, or a pharmaceutically acceptable salt thereof; and Y′ is the level of cortisol when the cell is free of compound according to anyone of Formulae I to V.

A further assay has as its target T2, CYP11B2 (aldosterone) (Homo sapiens, UniProt P19099).
T2 construct: host or cells: NCI-H295R (human adrenocortical carcinoma)
T2 sequence (P19099 25-503): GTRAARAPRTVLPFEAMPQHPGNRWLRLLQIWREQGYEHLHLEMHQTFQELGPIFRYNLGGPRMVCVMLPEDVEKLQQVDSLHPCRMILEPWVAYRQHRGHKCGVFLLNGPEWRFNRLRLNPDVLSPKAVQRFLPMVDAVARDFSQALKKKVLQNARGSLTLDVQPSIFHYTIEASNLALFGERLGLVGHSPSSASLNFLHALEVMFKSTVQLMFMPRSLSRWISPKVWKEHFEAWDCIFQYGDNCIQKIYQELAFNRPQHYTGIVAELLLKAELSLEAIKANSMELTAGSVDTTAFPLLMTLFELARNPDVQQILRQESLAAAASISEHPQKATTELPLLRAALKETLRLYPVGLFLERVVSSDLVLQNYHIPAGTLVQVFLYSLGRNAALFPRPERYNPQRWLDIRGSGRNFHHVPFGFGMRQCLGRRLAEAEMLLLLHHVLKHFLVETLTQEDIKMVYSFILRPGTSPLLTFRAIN
As to the kind of experiment: Inhibition of aldosterone production in NCI-H295R cells (Ang II stimulated, SPA). The following applies: inhibitory activity on aldosterone production, read-out: Aldosterone (cell). In kind it is cell-based. From the text:
In particular, the aldosterone synthase inhibitory activities in vitro can be determined by the following assay.
Human adrenocortical carcinoma NCI-H295R cell line was obtained from American Type Culture Collection (Manassas, Va.). Insulin/transferrin/selenium (ITS)-A supplement (100×), DMEM/F-12, antibiotic/antimycotic (100×), and fetal bovine serum (FBS) were purchased from Invitrogen (Carlsbad, Calif.). Anti-mouse PVT scintillation proximity assay (SPA) beads and NBS 96-well plates were obtained from GE Health Sciences (Piscataway, N.J.) and Corning (Acton, Mass.), respectively. Solid black 96-well flat bottom plates were purchased from Costar (Corning, N.Y.). Aldosterone and angiotensin (Ang II) were purchased from Sigma (St. Louis, Mo.). D-[1,2,6,7-^3H(N)]aldosterone was acquired from PerkinElmer (Boston, Mass.). Nu-serum was a product of BD Biosciences (Franklin Lakes, N.J.).
For in vitro measurement of aldosterone activity, human adrenocortical carcinoma NCI-H295R cells are seeded in NBS 96-well plates at a density of 25,000 cells/well in 100 μl of a growth medium containing DMEM/F12 supplemented with 10% FCS, 2.5% Nu-serum, 1 μg ITS/ml, and 1× antibiotic/antimycotic. The medium is changed after culturing for 3 days at 37° C. under an atmosphere of 5% CO2/95% air. On the following day, cells are rinsed with 100 μl of phosphate-buffered saline (PBS) and incubated with 100 μl of treatment medium containing 1 μM Ang II and a compound at different concentrations in quadruplicate wells at 37° C. for 24 hr. At the end of incubation, 50 μl of medium is withdrawn from each well for measurement of aldosterone production by an SPA using mouse anti-aldosterone monoclonal antibodies.
Measurement of aldosterone activity can also be performed using a 96-well plate format. Each test sample is incubated with 0.02 μCi of D-[1,2,6,7-^3H(N)]aldosterone and 0.3 μg of anti-aldosterone antibody in PBS containing 0.1% Triton X-100, 0.1% bovine serum albumin, and 12% glycerol in a total volume of 200 μl at room temperature for 1 hr. Anti-mouse PVT SPA beads (50 μl) are then added to each well and incubated overnight at room temperature prior to counting in a Microbeta plate counter. The amount of aldosterone in each sample is calculated by comparing with a standard curve generated using known quantities of the hormone.
The inhibition activity of aldosterone production can also be expressed in percentage inhibition (% inhibition) at a given concentration (e.g. % inhibition at 1 μM), which is the aldosterone level when the cell is treated with the given concentration of a compound of this invention (e.g. concentration of 1 μM) versus the aldosterone excretion when cell is free of the compound of the invention: % inhibition aldosterone production=[(Y−X)/Y]×100 wherein X is the level of aldosterone when the cell is treated with a compound according to anyone of Formulae I to V, or a pharmaceutically acceptable salt thereof; and Y is the level of aldosterone when the cell is free of compound according to anyone of Formulae I to V.

Regarding `CC(O)c1c(F)cncc1-c1ccc(C#N)c(Cl)c1` (single isomer, unassigned) [Example 16 (enantiomer-2)], the IC50 on CYP11B1(cortisol) was 9420 nM; at CYP11B2 (aldosterone), 106 nM.

Consider `CC(C)(O)c1c(F)cncc1-c1ccc(C#N)c(Cl)c1` [Example 32, 2-Chloro-4-[5-fluoro-4-(1-hydroxy-1-methyl-ethyl)-pyridin-3-yl]-benzonitrile], for which the IC50 was determined as 15000 nM at CYP11B1(cortisol) and 154 nM on CYP11B2 (aldosterone).

Turning to `COc1cc(-c2cnccc2C(C)O)ccc1C#N` (single isomer, unassigned) [Example 14 (enantiomer-1)], the IC50 at CYP11B1(cortisol) is 3390 nM; at CYP11B2 (aldosterone), 132 nM.

Consider `CC(O)c1ccncc1-c1ccc(Cl)c(Cl)c1` (stereo not shown) [Example 46, 1-[3-(3,4-Dichloro-phenyl)-pyridin-4-yl]ethanol], for which the IC50 stood at 672 nM at CYP11B1(cortisol) and 76.5 nM on CYP11B2 (aldosterone).

As for `CC(O)c1c(F)cncc1-c1ccc2cc(C#N)ccc2c1` (single isomer, unassigned) [5 (enantiomer-1), 6-(5-fluoro-4-(1-hydroxyethyl)pyridin-3-yl)-2-naphthonitrile], the IC50 on CYP11B1(cortisol) worked out at 367 nM; at CYP11B2 (aldosterone) it was 41.5 nM.

On to `Cn1c(-c2cnccc2CO)nc2ccc(Cl)cc21` [Example 37, [3-(6-Chloro-1-methyl-1H-benzoimidazol-2-yl)-pyridin-4-yl]-methanol], for which the IC50 stood at 12600 nM on CYP11B1(cortisol) and 120 nM on CYP11B2 (aldosterone).

In the case of `CC(O)c1c(F)cncc1-c1cc2cc(Cl)c(F)cc2o1` (single isomer, unassigned) [Example 13d (enantiomer-2), 1-(3-(5-chloro-6-fluorobenzofuran-2-yl)-5-fluoropyridin-4-yl)ethanol], the IC50 on CYP11B1(cortisol) came to 1070 nM; at CYP11B2 (aldosterone), 2.5 nM.

As to `CC(C)OCC(O)c1c(F)cncc1-c1ccc(C#N)c(Cl)c1` (stereo not shown) [Example 30, 2-Chloro-4-[5-fluoro-4-(1-hydroxy-2-isopropoxy-ethyl)-pyridin-3-yl]-benzonitrile hydrochloride], the figures for the IC50 at CYP11B1(cortisol) and at CYP11B2 (aldosterone) were 4240 nM and 144 nM, respectively.

With `CC1OC(=O)c2cncc(-c3ccc(C#N)c(Cl)c3)c21` (stereo not shown) [Example 24, 2-chloro-4-(1-methyl-3-oxo-1,3-dihydrofuro[3,4-c]pyridin-7-yl)benzonitrile], the IC50 on CYP11B2 (aldosterone) came out at 261 nM.

In the case of `N#Cc1ccc(-c2cnccc2C2CCO2)cc1Cl` (single isomer, unassigned) [Example 28 (enantiomer-1), 2-chloro-4-(4-(oxetan-2-yl)pyridin-3-yl)benzonitrile], the IC50 turned out to be 783 nM on CYP11B1(cortisol) and 23.5 nM on CYP11B2 (aldosterone).
